The record followed here is patent US20100234592A1, “Corrosion Inhibitors Having Increased Biodegradability and Reduced Toxicity” (priority 2006, published 2010).

A short description of data set [1]: Shell wheel test (corrosion inhibition). The conditions noted are these: carbon steel coupons in saltwater/petroleum mixture, pH 3.5, 70° C., 24 hours; 50 ppm of a 40% solution of the inhibitor; from mass decrease based on a blank value. How it is done: The inventive compounds were tested as corrosion inhibitors in the Shell wheel test. Coupons of carbon steel (DIN 1.1203 with surface area 15 cm^2) were immersed into a saltwater/petroleum mixture (9:1.5% NaCl solution adjusted to pH 3.5 with acetic acid) and exposed to this medium at a peripheral speed of 40 rpm at 70° C. for 24 hours. The dosage of the inhibitor was 50 ppm of a 40% solution of the inhibitor. The protection values were calculated from the mass decrease of the coupons based on a blank value.

Data set [2] can be described thus: LPR test (test conditions analogous to ASTM D 2776). Details: concentration or dose not given beside the values. How it is done: The products were also tested in the LPR test (test conditions analogous to ASTM D 2776).
Data set [3] can be described thus: Shaking foam test. The class given is physicochemical. The conditions noted are these: 50 ml of a 3% aqueous solution in demineralized water shaken 20 times within 10 seconds; graded weakly foaming, foaming or highly foaming.
Data set [4] can be described thus: Biodegradability (OECD 306).
In data set [5] the test system is Skeletonema costatum. The data set is described as follows: Toxicity (EC50 Skeletonema costatum). The class given is cell-based.

Read-outs that look alike come from different tables or passages of the source.

As to `CCCCCCCCCCCCCC(=O)N[C@@H](CC(=O)[O-])C(=O)[O-].[Na+].[Na+]` [comparative 3, N-myristoyl-L-aspartic acid disodium salt, reference compound], in data set [1], the Ø % protection is 38%. Also, in data set [2], the “Protection after 10 min” value worked out at 20.0%, the “Protection after 30 min” value is 42.6% and the “Protection after 60 min” value was 47.1%. For the same molecule, the Foaming behavior result in data set [3] is “highly foaming”. This molecule showed a Biodegradability in data set [4] (OECD 306) of 50.3%. In addition, a half-maximal effect in data set [5] (EC50) was put at 9.5 µg/mL.

Regarding “N-Dodecyl-DL-methionine cyclohexylammonium salt [compound from example 3]”, the Ø % protection in data set [1] was 78%. Also, in data set [2], the “Protection after 10 min” value was determined as 76.4%, the “Protection after 30 min” value is 88.4% and the “Protection after 60 min” value is given as 97.2%. Further, the Foaming behavior result in data set [3] was “weakly foaming”. Moreover, in data set [4] (OECD 306), the Biodegradability turned out to be 84.0%. In data set [5], the “Toxicity EC50” value stood at 22.3 µg/mL.

With `CCCCCCCC/C=C\CCCCCCCCNC(CCSC)C(=O)O.OCCN(CCO)CCO` (racemic) [compound from example 8, N-Oleyl-DL-methionine triethanolammonium salt], in data set [1], the Ø % protection is listed as 85%. Also, in data set [2], the “Protection after 10 min” value stood at 80.1%, the “Protection after 30 min” value was 94.5% and the “Protection after 60 min” value was 98.6%. Moreover, the Foaming behavior result in data set [3] was “weakly foaming”. Moreover, the Biodegradability in data set [4] is reported as 85.4%. In addition, the “Toxicity EC50” value in data set [5] came out at 13.6 µg/mL.

Consider `CCCCCCCCNC(CCSC)C(=O)O.NCCO` (racemic) [compound from example 1, N-Octyl-DL-methionine monoethanolammonium salt], for which, in data set [1], the Ø % protection is 63%. In data set [2], the “Protection after 10 min” value was found to be 60.5%, the “Protection after 30 min” value worked out at 75.3% and the “Protection after 60 min” value is 88.4%. In addition, the Foaming behavior entry in data set [3] was “weakly foaming”. This molecule showed a Biodegradability in data set [4] of 92.4%. For the same molecule, the “Toxicity EC50” value in data set [5] was determined as 44.5 µg/mL.

`CCCCCCCCCCCC(=O)NCC(=O)[O-].[Na+]` [comparative 2, N-lauroylglycine sodium salt, reference compound]: in data set [1], the Ø % protection turned out to be 45%. In data set [2], the “Protection after 10 min” value is 15.4%, the “Protection after 30 min” value was determined as 35.2% and the “Protection after 60 min” value was determined as 42.9%. Besides, the Foaming behavior entry in data set [3] is listed as “highly foaming”. In data set [4] (OECD 306), this molecule returned a Biodegradability of 44.5%. Moreover, the EC50 in data set [5] came to 8.5 µg/mL.

For `CCCCCCCCNC(CCSC)C(=O)O.OCCN(CCO)CCO` (racemic) [compound from example 2, N-Octyl-DL-methionine triethanolammonium salt], the Ø % protection in data set [1] was found to be 72%. Besides, in data set [2], the “Protection after 10 min” value was found to be 62.9%, the “Protection after 30 min” value turned out to be 76.1% and the “Protection after 60 min” value was 90.0%. Besides, the Foaming behavior entry in data set [3] is listed as “weakly foaming”.

As for “N-Cocoyl-DL-methionine morpholinium salt [compound from example 5]”, the Ø % protection in data set [1] is given as 85%. Further, in data set [2], the “Protection after 10 min” value is recorded as 90.3%, the “Protection after 30 min” value was determined as 94.2% and the “Protection after 60 min” value amounted to 98.9%.

In the case of “N-Oleyl-DL-methionine 2-(2-hydroxyethoxy)ethylammonium salt [compound from example 7]”, in data set [1], the Ø % protection is 82%. Further, in data set [2], the “Protection after 10 min” value is given as 78.5%, the “Protection after 30 min” value is 92.9% and the “Protection after 60 min” value turned out to be 98.5%. In addition, the Foaming behavior entry in data set [3] is “weakly foaming”.

As to “N-Dodecyl-DL-methionine dibutylammonium salt [compound from example 4]”, in data set [1], the Ø % protection was 80%. In data set [2], the “Protection after 10 min” value was determined as 74.8%, the “Protection after 30 min” value stood at 87.3% and the “Protection after 60 min” value came to 96.8%. Also, the Foaming behavior entry in data set [3] is “weakly foaming”.

Take “N-Cocoyl-DL-methionine N,N-diethyl-(2-hydroxyethyl)-ammonium salt [compound from example 6]”: the Ø % protection in data set [1] was 83%. Besides, in data set [2], the “Protection after 10 min” value amounted to 92.0%, the “Protection after 30 min” value came out at 96.7% and the “Protection after 60 min” value is given as 99.0%. Further, the “Toxicity EC50” value in data set [5] was 15.4 µg/mL.
